# Legend:
# [1] = test system: FeCl3-induced carotid artery injury model; experiment: Carotid artery FeCl3 injury thrombosis assay; format: in vivo, mice; settings: i.p. injection 50 mg/kg; vs phenylalanine or saline
# Experimental: Briefly, rhodamine 6G (100 μL; 0.5 mg/mL) was injected directly into the right jugular vein to label platelets. The left carotid artery was exposed and injured by placing a FeCl3-soaked filter paper for 1 minute. […] Time to cessation of blood flow through clot formation for all studies was determined by visual inspection by two different investigators. End points were set as cessation of blood flow for 30 seconds to 30 minutes.
# [2] = test system: human platelet rich plasma (PRP); experiment: Platelet aggregometry in platelet rich plasma; format: cell-based; settings: submaximal ADP
# Experimental: ADP (up to 4 μM), TRAP6 (up to 10 μM) and collagen (up to 1.0 μg/mL) were used as indicated to initiate aggregation with constant stirring (600 rpm).
# washed human platelets = experiment: Intracellular Ca2+ in Fura 2 loaded washed platelets; format: cell-based; settings: sub-maximal (0.02 U) thrombin
# Experimental: To prepare washed platelets for intracellular Ca^2+ measurements, 100 nM prostaglandin E1 (PGE-1) was added to PRP and the PRP was then centrifuged at 500×g for 20 min at 22° C. […] For ratiometric fluorescence measurements, washed platelets were incubated with Fura 2-AM (1 μM) at 22° C. for 30 min. Excess Fura 2-AM was removed by centrifugation at 500×g for 30 min.
compound,measurement,setting,value
"O=C(O)CNC(=O)Cc1ccccc1 [PAGly, phenylacetylglycine]",platelet thrombus formation within the injured carotid artery,[1],induced heightened platelet thrombus formation within the injured carotid artery
same,time to cessation of flow (occlusion time),[1],reduced the time to cessation of flow following injury
same,ADP-stimulated platelet aggregation response,[2],augmented stimulus (ADP) dependent platelet aggregation response
same,thrombin-evoked augmentation of [Ca2+]i,washed human platelets,provoked further rise in [Ca^2+]i in response to sub-maximal thrombin exposure
